The source of these data is patent US5620676A, “Biologically active ATP analogs” (priority 1995, dated 1997).

The subject of one assay is P2X and P2Y receptors. Kind of assay: Overall activity in the seven P2X and P2Y preparations.
Assay [1] deals with T1, P2X receptor (vas deferens) (Cavia porcellus, UniProt A0A286XVA9).
T1 sequence (A0A286XVA9 1-399): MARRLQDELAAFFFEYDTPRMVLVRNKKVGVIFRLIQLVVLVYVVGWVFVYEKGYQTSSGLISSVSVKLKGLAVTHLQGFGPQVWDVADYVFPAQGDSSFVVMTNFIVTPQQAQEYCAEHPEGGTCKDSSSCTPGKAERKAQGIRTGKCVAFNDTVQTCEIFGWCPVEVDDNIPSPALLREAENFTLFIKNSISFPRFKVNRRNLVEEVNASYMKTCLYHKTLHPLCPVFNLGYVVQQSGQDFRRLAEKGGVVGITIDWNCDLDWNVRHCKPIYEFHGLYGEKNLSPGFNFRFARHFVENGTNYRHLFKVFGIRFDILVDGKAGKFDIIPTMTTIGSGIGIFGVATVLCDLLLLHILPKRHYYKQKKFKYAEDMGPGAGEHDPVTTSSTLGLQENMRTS
Nature of the assay: Contraction of guinea pig isolated vas deferens.
Description: Muscular relaxation/contraction: Relaxant responses mediated via P2Y receptors were examined in guinea pig taenia coli, rabbit aorta, and rabbit mesenteric artery, as described by Hoyle et al. (Br. J. Pharmacol., 107, 367-374 (1992a)), Burnstock et al., (Br. J. Pharmacol., 90, 383-391 (1987a)), and Rubino et al., (Eur. J. Pharmacol., 212, 237-240 (1992)). Contractile responses mediated via P2X receptors were examined in the guinea pig urinary bladder and vas deferens, and rabbit saphenous artery, also using standard methods (see Hoyle et al., supra., 1992; Hoyle et al., Br. J. Pharmacol., 99, 617-621 (1990); and Burnstock et al., Br. J. Pharmacol., 90, 111-120 (1987b)).
In FIG. 14, the x-axis is also marked in units of the negative log of the molar concentration of applied putative P2Y receptor agonists and the y-axis is marked in units of the percentage relaxation of the 1 μM noradrenalin-induced contraction of rabbit aorta endothelium. In FIGS. 15-16, the x-axis is marked in units of the negative log of the molar concentration of applied putative p^2X receptor agonists and the y-axis is marked in units of the percentage contraction relative to a standard dose of KCl (i.e., 60 mM), as assessed in guinea pig isolated urinary bladder detrussor muscle (FIG. 15) and guinea pig isolated vas deferens (FIG. 16).

As to `N#CCCCCCCSc1nc(N)c2ncn([C@@H]3O[C@H](COP(=O)(O)OP(=O)(O)OP(=O)(O)O)[C@@H](O)[C@H]3O)c2n1` [2-(6-Cyanohexylthio)-ATP, 2-(6-Cyanohexylthio)adenosine-5'-triphosphate], in the assay with P2X and P2Y receptors, the “overall activity in words, all preparations” value was “more potent than ATP in all systems except the P2X system of the saphenous artery”. In addition, in assay [1], the “activity/potency in words, vas deferens” value is “potent agonists in the vas deferens and urinary bladder”.
